According to ChEMBL document CHEMBL1201862, “PubChem BioAssay data set” (2004):
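1) Cells in 96-well plates. 2) Compound, 48 h, 5 concentrations. 3) Linear interpolation between surrounding doses. 4) Unreached endpoint = highest concentration. The concentration for 50% growth inhibition is given as GI50.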 Activity calls are given as the source filed them. Cut-off read from the data, not from the text of the source: active = GI50 up to about 1.1 µM and inactive = higher.

Key:
Assay in all cases: NCI anticancer screen, dose series, 48 h
NCI-H522 = tested on: NCI-H522
IGROV-1 = tested on: IGROV-1
NCI/ADR-RES = tested on: NCI/ADR-RES
NCI-H226 = tested on: NCI-H226
ACHN = tested on: ACHN
HCT-116 = tested on: HCT-116
LOX IMVI = tested on: LOX IMVI
RPMI-8226 = tested on: RPMI-8226
CAKI-1 = tested on: CAKI-1
MDA-N = tested on: MDA-N
A498 = tested on: A498
MCF7 = tested on: MCF7
RXF 393 = tested on: RXF 393
NCI-H23 = tested on: NCI-H23
SNB-75 = tested on: SNB-75
PC-3 = tested on: PC-3
HOP-92 = tested on: HOP-92
SK-MEL-28 = tested on: SK-MEL-28
SW-620 = tested on: SW-620
786-0 = tested on: 786-0
SF-539 = tested on: SF-539
SN12C = tested on: SN12C
T47D = tested on: T47D
COLO 205 = tested on: COLO 205
Hs-578T = tested on: Hs-578T
U-251 = tested on: U-251
MOLT-4 = tested on: MOLT-4
SF-295 = tested on: SF-295
SK-OV-3 = tested on: SK-OV-3
SK-MEL-2 = tested on: SK-MEL-2
HCT-15 = tested on: HCT-15
HCC 2998 = tested on: HCC 2998
SK-MEL-5 = tested on: SK-MEL-5
OVCAR-4 = tested on: OVCAR-4
SF-268 = tested on: SF-268
SNB-19 = tested on: SNB-19
TK-10 = tested on: TK-10
OVCAR-8 = tested on: OVCAR-8
MDA-MB-231 = tested on: MDA-MB-231
HT-29 = tested on: HT-29
HL-60 = tested on: HL-60
OVCAR-3 = tested on: OVCAR-3
CCRF-CEM = tested on: CCRF-CEM
NCI-H460 = tested on: NCI-H460
K562 = tested on: K562
UO-31 = tested on: UO-31
A549 = tested on: A549
BT-549 = tested on: BT-549
UACC-257 = tested on: UACC-257
OVCAR-5 = tested on: OVCAR-5
UACC-62 = tested on: UACC-62
DU-145 = tested on: DU-145
SR = tested on: SR
MDA-MB-435 = tested on: MDA-MB-435
KM12 = tested on: KM12
Malme-3M = tested on: Malme-3M
HOP-62 = tested on: HOP-62
EKVX = tested on: EKVX
M14 = tested on: M14

Measured: GI50

CC1(C)C/C=C\CCC(O)C(O)CCC(C)(C)C1=O (stereo unspecified)
> 100 µM: HCT-15
inactive: NCI-H522 62.2 µM | IGROV-1 > 100 µM | NCI/ADR-RES > 100 µM | NCI-H226 > 100 µM | ACHN > 100 µM | HCT-116 > 100 µM | LOX IMVI > 100 µM | RPMI-8226 > 100 µM | CAKI-1 > 100 µM | MDA-N > 100 µM | A498 > 100 µM | MCF7 > 100 µM | RXF 393 > 100 µM | NCI-H23 > 100 µM | SNB-75 > 100 µM | PC-3 > 100 µM | HOP-92 > 100 µM | SK-MEL-28 > 100 µM | SW-620 > 100 µM | 786-0 > 100 µM | SF-539 > 100 µM | SN12C > 100 µM | T47D > 100 µM | COLO 205 > 100 µM | Hs-578T > 100 µM | U-251 > 100 µM | MOLT-4 > 100 µM | SF-295 > 100 µM | SK-OV-3 > 100 µM | SK-MEL-2 > 100 µM | HCC 2998 17.1 µM | SK-MEL-5 > 100 µM | OVCAR-4 > 100 µM | SF-268 > 100 µM | SNB-19 > 100 µM | TK-10 > 100 µM | OVCAR-8 > 100 µM | MDA-MB-231 > 100 µM | HT-29 > 100 µM | HL-60 > 100 µM | OVCAR-3 > 100 µM | CCRF-CEM > 100 µM | NCI-H460 > 100 µM | K562 > 100 µM | UO-31 > 100 µM | A549 > 100 µM | BT-549 > 100 µM | UACC-257 > 100 µM | OVCAR-5 > 100 µM | UACC-62 > 100 µM | DU-145 > 100 µM | SR > 100 µM | MDA-MB-435 > 100 µM | KM12 > 100 µM | Malme-3M > 100 µM | HOP-62 > 100 µM | EKVX > 100 µM

COc1ccc(NC(C(N)=O)c2cc3cc(Br)ccc3nc2Cl)cc1 (stereo unspecified)
47.5 µM: HCT-15
inactive: NCI-H522 34 µM | IGROV-1 25.5 µM | NCI/ADR-RES 39 µM | NCI-H226 > 100 µM | ACHN > 100 µM | HCT-116 61 µM | LOX IMVI 44.6 µM | RPMI-8226 30.4 µM | CAKI-1 > 100 µM | MDA-N 28.1 µM | A498 > 100 µM | MCF7 32.4 µM | RXF 393 38.3 µM | NCI-H23 > 100 µM | SNB-75 81.5 µM | PC-3 44.6 µM | HOP-92 22.5 µM | SK-MEL-28 > 100 µM | SW-620 38.7 µM | 786-0 > 100 µM | SF-539 19.1 µM | SN12C > 100 µM | M14 42 µM | T47D 58.1 µM | COLO 205 41 µM | Hs-578T > 100 µM | MOLT-4 20.2 µM | SF-295 38.4 µM | SK-OV-3 > 100 µM | SK-MEL-2 30.3 µM | HCC 2998 73.8 µM | SK-MEL-5 53.5 µM | OVCAR-4 68.4 µM | SF-268 76.4 µM | SNB-19 > 100 µM | TK-10 3.64 µM | OVCAR-8 57.1 µM | MDA-MB-231 90.6 µM | HT-29 > 100 µM | HL-60 25.4 µM | OVCAR-3 60.7 µM | CCRF-CEM 26.2 µM | NCI-H460 89.5 µM | K562 26.7 µM | UO-31 > 100 µM | A549 91.8 µM | BT-549 31.4 µM | UACC-257 71.8 µM | OVCAR-5 > 100 µM | UACC-62 52.7 µM | DU-145 > 100 µM | SR 15.6 µM | MDA-MB-435 22.1 µM | KM12 48.4 µM | Malme-3M > 100 µM | HOP-62 59.8 µM | EKVX 28.1 µM
